Measurements published in patent US8329940B2, “18β-glycyrrhetinic acid derivatives and synthetic method thereof” (Kaohsiung Medical University, priority 2009, dated 2012).
Where two headings read alike, the source gives them in different places.

Columns and labels:
[1] = system: superoxide anion formation from rat neutrophils stimulated with fMLP/CB; assay: Superoxide anion formation in rat neutrophils stimulated by fMLP/CB; type: cell-based; conditions: for % of inhibition of superoxide anion formation, fMLP/CB (in parentheses): at the highest concentration, rat neutrophils; for IC50: rat neutrophils stimulated with fMLP (0.3 μM)/CB (5 μg/mL), 30 min
Description: Compound stock solution (30 mM in DMSO) is prepared and stored at −25° C. before experiment. In the superoxide anion generation experiments, neutrophils isolated from the peripheral blood of the rats are stimulated with formyl-Met-Leu-Phe (fMLP, 0.3 μM)/Cytochalasin B (CB, 5 μg/mL) for 30 min in the presence of cytochrome c, and the superoxide anion generation is measured in terms of superoxide dismutase-inhibitable cytochrome c reduction.

[2] = system: superoxide anion formation from rat neutrophils stimulated with PMA; assay: Superoxide anion formation in rat neutrophils stimulated by PMA; type: cell-based; conditions: for % of inhibition of superoxide anion formation, PMA (in parentheses): at the highest concentration, rat neutrophils; for IC50: rat neutrophils stimulated with PMA
[3] = system: accumulation of NO2− in RAW 264.7 cells stimulated with LPS; assay: Nitrite (NO2−) accumulation in RAW 264.7 cells stimulated with LPS (Griess reaction); type: cell-based, Murine; conditions: for IC50: RAW 264.7 cells stimulated with LPS, 24 h, read-out: IC50 (B) accumulation of NO2− in RAW 264.7; for % of inhibition of NO2− accumulation (in parentheses): at the highest concentration, RAW 264.7, LPS
Description: (§1) Nitrite is a stable metabolite of NO in the media based on Griess reaction. […] To determine whether the inhibition of NO production in RAW 264.7 cells is attributed to the decrease of iNOS protein expression, Western blotting analysis is performed. Unstimulated cells expressed very low level of iNOS protein, whereas LPS 50 ng/mL induced a large amount of iNOS protein expression. […] Thus, the blockade of iNOS transcription has a critical role as evidenced from the parallelism of the inhibition of NO production and iNOS protein expression by compound 14.

[4] = system: TNF-a formation from RAW 264.7 cells stimulated with LPS; conditions: for % of inhibition of TNF-a formation (in parentheses): at the highest concentration, RAW 264.7, LPS
Description: Nitric oxide (NO) in the cell medium is determined by the Griess reaction. In Western blot analysis, cells are washed with PBS twice and harvested in Laemmli sodium dodecyl sulfate (SDS) sample buffer to lyse the cells. Cell lysates are separated by 10% SDS-PAGE, and electrophoretically transferred to the poly(vinylidene difluoride) membranes. Membranes are blocked for 1 h at room temperature in TBST buffer (10 mM Tris-HCl, pH 8.0, 150 mM NaCl and 0.1% Tween 20) containing 5% nonfat milk. Membranes are washed with TBST buffer and then incubated with a monoclonal anti-iNOS antibody (1:1000 dilution) for 1 h. Following washed with TBST buffer, horseradish peroxidase-labeled anti-mouse IgG (1:10,000 dilution) is added therein at room temperature for 1 h. The blots are developed using ECL Western blotting reagents. Secretory levels of TNF-a in culture supernatants are determined by the EIA kit according to the procedure of manufacturer.

plasmid pBR322DNA = assay: Inhibition of oxidative DNA damage by O2− from xanthine/xanthine oxidase (agarose gel electrophoresis); conditions: 500 μM compound, xanthine (2 mM)/xanthine oxidase (0.7 U/mL), 20 min, 37° C.
Description: A mixture of the plasmid pBR322DNA ([…]) and xanthine (2 mM)/xanthine oxidase (0.7 U/mL) in 10 mM phosphate buffer (pH 7.4) is incubated for 20 min with 500 μlM of superoxide dismutase, quercetin, or compounds 2, 6, 7, 13, 14, and 20 in a total volume of 20 μL at 37° C., respectively. After incubating for 20 min, a 15 μL aliquot of mixture is loaded into 1.0% agarose gel containing ethidium bromide (0.05 μg/mL) in Tris-acetate-ethylenediaminetetraacetic acid (EDTA) buffer. The electrophoresis is carried out for 30 min at 100 V. Then the gels are illuminated with UV light and photographed.
ROS have been known to damage many biological macromolecules, for instance, with DNA being a significant target. The ability of 18β-GA derivatives to inhibit the DNA damage caused by O2^− (generated by xanthine (XA)/XO) is studied in vitro by agarose gel electrophoresis. […] For determined the antioxidant activities of these compounds, the radical scavenging activities and XO inhibitory activities of these compounds are analyzed.

xanthine oxidase (XO) [5] = assay: Xanthine oxidase activity assay; type: biochemical; conditions: xanthine as substrate, 25° C., 295 nm
Description: (§2) The xanthine oxidase activity with xanthine as the substrate is measured at 25° C., according to the protocol of Kong and associates (Cell Mol. […] After preincubation at 25° C. for 15 min, the reaction is initiated by addition of 60 μL of substrate solution (150 μM xanthine in the same buffer). The reaction is monitored at 295 nm. The xanthine oxidase activity is expressed as micromoles of uric acid per minute.

xanthine oxidase (XO) [6] = biological target: xanthine oxidase (XO) (Homo sapiens, UniProt P47989); assay: Xanthine oxidase activity assay; type: biochemical; conditions: xanthine as substrate, 25° C.
Description: as §2

iNOS protein expression = iNOS protein expression in LPS-stimulated RAW 264.7 cells (Western blot); type: cell-based, Murine; conditions: RAW 264.7, LPS 50 ng/mL
Description: as §1

[7] = read-out: IC50 (C) TNF-a formation in RAW 264.7, RAW 264.7 cells stimulated with LPS
[8] = Mus musculus, RAW264.7, read-out: IC50 (C) TNF-a formation in RAW 264.7

Chain of xanthine oxidase (XO) (P47989 whole entry, species assumed): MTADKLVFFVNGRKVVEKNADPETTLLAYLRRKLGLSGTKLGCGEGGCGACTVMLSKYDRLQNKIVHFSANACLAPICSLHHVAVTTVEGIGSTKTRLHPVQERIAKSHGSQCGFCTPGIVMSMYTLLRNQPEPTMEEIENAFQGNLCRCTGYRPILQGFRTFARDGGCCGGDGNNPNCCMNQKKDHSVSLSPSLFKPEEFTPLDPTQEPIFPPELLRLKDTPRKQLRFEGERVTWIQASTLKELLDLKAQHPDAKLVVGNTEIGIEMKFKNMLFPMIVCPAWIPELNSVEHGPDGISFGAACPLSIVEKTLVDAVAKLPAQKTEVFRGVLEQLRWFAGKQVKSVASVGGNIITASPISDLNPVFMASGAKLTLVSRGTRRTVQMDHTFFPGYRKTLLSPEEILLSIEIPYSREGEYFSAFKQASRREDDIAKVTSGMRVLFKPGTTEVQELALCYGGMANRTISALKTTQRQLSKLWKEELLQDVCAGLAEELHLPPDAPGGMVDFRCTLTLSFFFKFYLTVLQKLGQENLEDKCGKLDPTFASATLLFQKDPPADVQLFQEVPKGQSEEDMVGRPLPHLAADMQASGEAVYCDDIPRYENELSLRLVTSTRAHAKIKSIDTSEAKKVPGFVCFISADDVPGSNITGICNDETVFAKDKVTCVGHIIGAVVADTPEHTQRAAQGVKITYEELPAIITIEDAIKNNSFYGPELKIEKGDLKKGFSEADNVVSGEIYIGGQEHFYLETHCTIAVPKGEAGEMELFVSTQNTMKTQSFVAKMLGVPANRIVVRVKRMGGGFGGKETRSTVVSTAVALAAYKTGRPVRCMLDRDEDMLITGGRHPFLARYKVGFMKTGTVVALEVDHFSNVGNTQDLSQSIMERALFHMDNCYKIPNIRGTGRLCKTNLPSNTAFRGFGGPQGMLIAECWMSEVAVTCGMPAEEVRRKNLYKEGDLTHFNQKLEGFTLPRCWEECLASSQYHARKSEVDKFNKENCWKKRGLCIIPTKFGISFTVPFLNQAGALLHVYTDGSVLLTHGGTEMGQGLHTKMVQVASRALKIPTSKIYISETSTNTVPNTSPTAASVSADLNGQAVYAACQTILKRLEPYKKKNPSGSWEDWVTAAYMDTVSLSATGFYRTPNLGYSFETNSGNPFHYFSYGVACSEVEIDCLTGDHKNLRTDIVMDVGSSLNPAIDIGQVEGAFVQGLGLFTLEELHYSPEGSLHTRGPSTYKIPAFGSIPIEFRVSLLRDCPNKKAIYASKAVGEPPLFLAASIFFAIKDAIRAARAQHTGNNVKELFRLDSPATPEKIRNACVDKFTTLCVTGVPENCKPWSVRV
Chain of xanthine oxidase (XO) (Homo sapiens, UniProt P47989) (P47989 whole entry, species assumed): as above

Row | SMILES | IC50 [1] [µM] | IC50 [2] [µM] | IC50 [3] [µM] | IC50 [4, 7] [µM] | % of inhibition of superoxide anion formation, fMLP/CB (in parentheses) [1] [%] | % of inhibition of superoxide anion formation, PMA (in parentheses) [2] [%] | % of inhibition of NO2− accumulation (in parentheses) [3] [%] | % of inhibition of TNF-a formation (in parentheses) [4] [%] | other results
1 | CC(C)NC(=O)C1(C)CCC2(C)CCC3(C)C(=CC(=O)C4C5(C)CCC(=O)OC(C)(C)C5CCC43C)C2C1 (stereo not drawn) [Compound 18] | > 30 | > 30 | > 10 | > 10 | 2.7 ± 12.5 | 48.2 ± 8.4 | 30.0 ± 11.9 | 9.7 ± 4.7 | 
2 | O=c1c(-c2ccc(O)cc2)coc2cc(O)cc(O)c12 [Genistein, genistein, reference compound] |  |  |  |  |  |  |  |  | IC50 [4, 8]: 26.5 ± 9.1 µM
3 | CC1(C(=O)O)CCC2(C)CCC3(C)C(=CC(=O)C4C5(C)CCC(=O)OC(C)(C)C5CCC43C)C2C1 (stereo not drawn) [Compound 5] | > 3 | > 3 | > 3 | > 3 | 27.4 ± 9.2 | −8.2 ± 11.8 | 3.0 ± 4.2 | −0.7 ± 2.7 | 
4 | C=C(C)C1CCC2(C)C(C(=O)C=C3C4CC(C)(C(=O)OCc5ccccc5)CCC4(C)CCC32C)C1(C)CCC(=O)OC (stereo not drawn) [Compound 13] |  |  |  |  |  |  | 44.5 ± 4.2 |  | IC50 ([2]; Neutrophil): 17 ± 1.5 µM; IC50 ([3]; Mus musculus, RAW264.7): > 30 µM; inhibition at 30 µM ([3]; Mus musculus, RAW264.7, each at 30 μM, RAW 264.7, read-out: inhibitory effect on NO accumulation in the media induced by LPS): ~40%; protective effect on oxidative DNA damage caused by O2− (plasmid pBR322DNA): significant protective effects; IC50 (xanthine oxidase (XO) [5]): 175 ± 0.9 µM; melting point: 32 to 38 °C; IC50 [4, 8]: 13.7 ± 4.3 µM
5 | C=C(C)C1CCC2(C)C(C(=O)C=C3C4CC(C)(C(=O)OC)CCC4(C)CCC32C)C1(C)CCC(=O)O (stereo not drawn) [Compound 10] |  |  |  | 26.1 ± 14.7 |  |  |  |  | 
6 | CC1(C)C(=O)CC[C@]2(C)[C@H]3C(=O)C=C4[C@@H]5C[C@@](C)(C(=O)O)CC[C@]5(C)CC[C@@]4(C)[C@]3(C)CC[C@@H]12 [Compound 2] | 10.3 ± 5.2 |  | > 30 |  |  |  | 45.6 ± 9.1 |  | inhibitory effect on NO accumulation in the media induced by LPS ([3]; each at 30 μM, RAW 264.7): about 40%; protective effect on oxidative DNA damage caused by O2− (plasmid pBR322DNA): significant protective effects; inhibition of XO activity (xanthine oxidase (XO) [6]): weakly inhibit
7 | COC(=O)C1(C)CCC2(C)CCC3(C)C(=CC(=O)C4C5(C)CCC(=O)OC(C)(C)C5CCC43C)C2C1 (stereo not drawn) [Compound 6, 3,4 lactone 30 methyl ester] |  |  |  |  |  |  |  |  | IC50 ([2]; Neutrophil): 12.9 ± 1.8 µM; protective effect on oxidative DNA damage caused by O2− (plasmid pBR322DNA): significant protective effects; IC50 (xanthine oxidase (XO) [5]): 132 ± 2.7 µM; melting point: 166 to 171 °C
8 | C=C(C)C1CCC2(C)C(C(=O)C=C3C4CC(C)(C(=O)Nc5ccccc5)CCC4(C)CCC32C)C1(C)CCC(=O)OC (stereo not drawn) [Compound 15] |  |  |  | 15.5 ± 3.2 |  |  |  |  | 
9 | C=C(C)C1CCC2(C)C(C(=O)C=C3C4CC(C)(C(=O)OCc5ccccc5)CCC4(C)CCC32C)C1(C)CCC(=O)O (stereo not drawn) [Compound 17] |  |  |  | 2.3 ± 0.5 |  |  |  |  | 
10 | C=C(C)C1CCC2(C)C(C(=O)C=C3C4CC(C)(C(=O)Nc5ccccc5)CCC4(C)CCC32C)C1(C)CCC(=O)O (stereo not drawn) [Compound 21] |  |  |  | 27.7 ± 7.2 |  |  |  |  | 
11 | C=C(C)C1CCC2(C)C(C(=O)C=C3C4CC(C)(C(=O)OC(C)C)CCC4(C)CCC32C)C1(C)CCC(=O)OC (stereo not drawn) [Compound 12] | > 30 | > 10 | > 30 | > 30 | −2.5 ± 11.9 | 28.7 ± 15.9 | 43.0 ± 4.3 | 47.0 ± 1.3 | inhibitory effect on NO accumulation in the media induced by LPS ([3]; each at 30 μM, RAW 264.7): about 40%
12 | C=C(C)C1CCC2(C)C(C(=O)C=C3C4CC(C)(C(=O)O)CCC4(C)CCC32C)C1(C)CCC(=O)OC(C)C (stereo not drawn) [Compound 9] | > 1 | > 1 | > 30 | > 30 | 48.8 ± 6.6 | −7.0 ± 3.0 | 39.8 ± 5.4 | 38.4 ± 14.6 | 
13 | C=C(C)C1CCC2(C)C(C(=O)C=C3C4CC(C)(C(=O)OC)CCC4(C)CCC32C)C1(C)CCC(=O)OC (stereo not drawn) [Compound 11] |  |  | > 30 |  |  |  | 44.3 ± 10.5 |  | inhibitory effect on NO accumulation in the media induced by LPS ([3]; each at 30 μM, RAW 264.7): about 40%
14 | CC1(C(=O)Nc2ccccc2)CCC2(C)CCC3(C)C(=CC(=O)C4C5(C)CCC(=O)OC(C)(C)C5CCC43C)C2C1 (stereo not drawn) [Compound 19] | > 10 | > 3 | > 30 | > 30 | −1.6 ± 4.4 | 26.9 ± 3.0 | 20.5 ± 2.7 | 45.2 ± 14.6 | 
15 | C=C(C)C1CCC2(C)C(C(=O)C=C3C4CC(C)(C(=O)NC(C)C)CCC4(C)CCC32C)C1(C)CCC(=O)O (stereo not drawn) [Compound 20] | 9.8 ± 5.2 |  |  |  |  |  |  |  | protective effect on oxidative DNA damage caused by O2− (plasmid pBR322DNA): significant protective effects; inhibition of XO activity (xanthine oxidase (XO) [6]): weakly inhibit
16 | C=C(C)C1CCC2(C)C(C(=O)C=C3C4CC(C)(C(=O)O)CCC4(C)CCC32C)C1(C)CCC(=O)O (stereo not drawn) [Compound 7] | 7 ± 2 |  |  |  |  |  |  |  | protective effect on oxidative DNA damage caused by O2− (plasmid pBR322DNA): significant protective effects; inhibition of XO activity (xanthine oxidase (XO) [6]): weakly inhibit
17 | C=C(C)C1CCC2(C)C(C(=O)C=C3C4CC(C)(C(=O)NC(C)C)CCC4(C)CCC32C)C1(C)CCC(=O)OC (stereo not drawn) [Compound 14] |  |  |  |  |  |  |  |  | IC50 ([2]; Neutrophil): 15.6 ± 1.7 µM; IC50 ([3]; Mus musculus, RAW264.7): 13.1 ± 5 µM; inhibition of iNOS protein expression (iNOS protein expression): significantly inhibited the iNOS protein expression; protective effect on oxidative DNA damage caused by O2− (plasmid pBR322DNA): significant protective effects; IC50 (xanthine oxidase (XO) [5]): 192 ± 2.7 µM; melting point: 80 to 85 °C
18 | c1ccc2c(c1)[I+]c1ccccc1-2 [DPI, reference compound] | 2.7 ± 2 | 1.8 ± 0.4 |  |  |  |  |  |  | 

Second part, led by results:

Row | IC50 [1] [µM] | IC50 [2] [µM] | IC50 [3] [µM] | IC50 [4, 7] [µM] | SMILES | % of inhibition of superoxide anion formation, fMLP/CB (in parentheses) [1] [%] | % of inhibition of superoxide anion formation, PMA (in parentheses) [2] [%] | % of inhibition of NO2− accumulation (in parentheses) [3] [%] | % of inhibition of TNF-a formation (in parentheses) [4] [%] | other results
19 |  |  | 1.5 ± 0.2 |  | CC(=N)NCc1cccc(CN)c1 [Compound 1400W, N-(3-aminomethyl) benzylacetamidine, reference compound] |  |  |  |  | 
20 |  |  |  | 1.3 ± 0.4 | COC(=O)C1(C)CCC2(C)CCC3(C)C(=CC(=O)C4C5(C)CCC(O)C(C)(C)C5CCC43C)C2C1 (stereo not drawn) [Compound 3] |  |  |  |  | 
21 | > 10 | > 10 | > 10 | > 10 | C=C(C)C1CCC2(C)C(C(=O)C=C3C4CC(C)(C(=O)O)CCC4(C)CCC32C)C1(C)CCC(=O)OC (stereo not drawn) [Compound 8] | 81.9 ± 7.4 | 7.4 ± 3.1 | 29.6 ± 10.0 | 21.2 ± 8.7 | 
22 | > 30 | > 30 | > 10 | > 10 | CC1(C(=O)OCc2ccccc2)CCC2(C)CCC3(C)C(=CC(=O)C4C5(C)CCC(=O)OC(C)(C)C5CCC43C)C2C1 (stereo not drawn) [Compound 16] | −22.9 ± 7.6 | −10.7 ± 10.2 | −2.3 ± 4.6 | 25.3 ± 9.9 | 
